Data on six compounds can be found in patent publication US11737462B2, “Methods for modulating plant response to environmentally-induced stress” (Howard University, priority 2012, dated 2023).

For one assay, the target named is RACK1A (Arabidopsis thaliana, UniProt O24456). The assay is described as follows: in-vitro assay of tyrosine phosphorylation (Y248) based homodimerization of RACK1A. The following applies: in-vitro assay. The class given is biochemical. The source says:
A crystal structure of Arabidopsis thaliana RACK1 protein has been reported. Deducing the crystal structure of the Arabidopsis RACK1A protein highlighted the potential functional residues of the protein. Noteworthy in the structure was the functionally conserved tyrosine phosphorylation residue (Y248) that has been implicated in RACK1A function. Therefore, it was undertaken to identify a chemical inhibitor of Y248 phosphorylation that would serve as a potential “anti-stress” compound in countering environmental stresses in plants. In order to identify small compounds occupying the Y248 pocket, docking simulations with a subset of 30,000 compounds were performed. Based on ranking with an energy cut-off of 25 kcal/mol, 3,011 compounds were then selected. Upon further re-ranking, 46 lead compounds were identified and 11 compounds were screened for their efficacy in an in-vitro assay. […] Those six compounds include SD-29, SD-29-9, SD-29-11, SD-29-22, SD-34, and SD-125.

The test system of assay [1] is homodimerized RACK1A maintaining yeast cells (AA). The assay is described as follows: UV-B induced cell death in homodimerized RACK1A maintaining yeast cells (AA). Format: cell-based. To be noted: 60 μM overnight, Live/dead staining, vs DMSO-only control. As to the method:
(§1) In this experiment, yeast cells were irradiated with UV-B light to analyze the effect of SD-29 analogs on UV-B induced cell death. The yeast cells were developed to assay for RACK1A homodimerization assays using split-ubiquitin technique. In this assay, homodimerized RACK1A maintaining yeast cells (AA) were grown overnight in the presence of 60 μM of the indicated compounds. Yeast cells treated overnight with SD-29-7, SD-29-9, and SD-29-11 with and without exposure to UV-B were compared to a DMSO-only control. The cells were stained with Invitrogen's Live/dead cell assay system where dead cells appeared as intensely fluorescent with brightness under a fluorescent microscope.
(§2) In this experiment, yeast was treated with UV-B to analyze the effect of SD-29-12 on UV-B induced cell death. Two groups of yeast were used. One was the yeast used in Example 6 (“AA”) and the other (“YY”) is a Y248F mutant. The AA cells can homodimerize but YY cells cannot.
(§3) The yeast was treated overnight with SD-29-12 and then followed the same protocol as described in Example 6.

Another assay relates to Y248F mutant yeast (YY). The assay can be described thus: UV-B induced cell death in Y248F mutant yeast (YY). The class given is cell-based. To be noted: treated overnight, Live/dead staining. How it is done: as §1, §2, §3
For the next assay, the system named is Arabidopsis plants. The assay can be described thus: high temperature stress (42° C.) in Arabidopsis plants. The class given is in vivo, Arabidopsis thaliana.
A further assay has as its system plant. The assay is described as follows: salt sensitivity when applied to a plant. The following applies: in vivo.
A further assay concerns the target T1, Arabidopsis RACK1A (Arabidopsis thaliana, UniProt O24456).
T1 construct: from tissue; host or cells: Arabidopsis plant leaves
The assay can be described thus: western blot of RACK1A tyrosine phosphorylation in Arabidopsis leaves under heat stress. The class given is in vivo. To be noted: 42° C. for three hours, western blot, antibody to phosphorylated Y248. How it is done:
In the examples described herein, the test compounds (e.g., SD-29 or analogs thereof) were dissolved in dimethyl sulfoxide (DMSO) to provide a 20 mM concentration. Micromolar concentrations were then prepared as needed by addition to the water incubation media. Unless stated otherwise, the experimental plants were incubated with the roots immersed in the water containing the compound. The control plants received only DMSO in the same amount as that of the compound. In the second group (FIG. 3), Arabidopsis plants were held at 42° C. for six hours and compared to control plants held at about 22° C. The Arabidopsis plant in the experimental group was treated with 60 μM SD-29 in water. A control plant received water and DMSO. Lysates were then prepared from the leaves and western blots were performed using immobilized mouse anti-pTRY and Arabidopsis-anti RAC[…]. […] A similar experiment was carried out using analog SD-29-9 and SD-29 at 42° C. for three hours. […] A western blot was then performed using an antibody that was raised targeting phosphorylated […] residue of RAC[…].

Chain of RACK1A (O24456 whole entry): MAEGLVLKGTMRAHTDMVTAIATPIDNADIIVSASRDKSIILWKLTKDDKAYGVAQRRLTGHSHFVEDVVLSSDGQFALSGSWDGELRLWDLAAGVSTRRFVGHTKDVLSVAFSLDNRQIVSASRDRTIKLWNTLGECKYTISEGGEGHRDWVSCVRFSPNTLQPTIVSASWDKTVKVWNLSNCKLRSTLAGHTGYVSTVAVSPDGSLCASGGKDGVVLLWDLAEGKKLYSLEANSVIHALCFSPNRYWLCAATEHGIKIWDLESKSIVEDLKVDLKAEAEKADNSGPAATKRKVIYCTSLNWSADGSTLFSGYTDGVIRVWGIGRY
T1 sequence (O24456 whole entry): as above

Regarding `COc1ccc2[nH]cc(CC(N)C(=O)O)c2c1` (stereo not shown) [SD-125], the “tyrosine phosphorylation (Y248) based homodimerization of RACK1A proteins” value (“tyrosine phosphorylation … of RACK1A proteins” below) at RACK1A is “prevent tyrosine phosphorylation (Y248) based homodimerization of RACK1A proteins”.

Consider `COc1ccc(-c2nnc(SCC(=O)O)n2N)cc1` [SD-29-12], for which the “UV-B induced cell death in yeast cells (AA)” value (“UV-B induced cell death … (AA)” below) in assay [1] was “effective to prevent UV-B induced cell death”. For the same compound, the “UV-B induced cell death in Y248F mutant yeast (YY)” value in the assay on Y248F mutant yeast (YY) is on record as “failed to provide protection from UV-B induced cell death”. Moreover, the “high temperature stress induced deformations in Arabidopsis plants” value in the assay on Arabidopsis plants (42° C., vs vehicle control (DMSO)) is “very effective in preventing high temperature stress induced deformations”. Besides, the “heat sensitivity when applied to a plant” value with Arabidopsis plants (in vivo) is recorded as “does not induce heat sensitivity”. Besides, in the assay with plant, the “salt sensitivity when applied to a plant” value is “induces salt sensitivity”.

As for `Cc1cc(Cl)ccc1NC(=O)CSc1nnc(-c2cccc(Cl)c2)n1N` [SD-29-9], the “tyrosine phosphorylation … of RACK1A proteins” value at RACK1A is “prevent tyrosine phosphorylation (Y248) based homodimerization of RACK1A proteins”. Besides, the “UV-B induced cell death … (AA)” value in assay [1] is “effective to protect yeast cells from UV-B induced cell death”. For the same compound, the “Arabidopsis RACK1A tyrosine phosphorylation at increased temperature” value on Arabidopsis RACK1A was “effective to prevent Arabidopsis RACK1A tyrosine phosphorylation at increased temperature”.

As to `Cc1ccc2[nH]cc(C(O)C(F)(F)F)c2c1` (stereo not shown) [SD-34], the “tyrosine phosphorylation … of RACK1A proteins” value on RACK1A is on record as “prevent tyrosine phosphorylation (Y248) based homodimerization of RACK1A proteins”.

For `Nn1c(SCc2ccc(F)cc2)nnc1-c1ccc(Cl)cc1` [SD-29-7], in assay [1], the “UV-B induced cell death … (AA)” value is “did not protect the cells”.

As for `COc1cc(-c2nnc(SCC(=O)Nc3ccc(Oc4ccccc4)cc3)n2N)cc(OC)c1OC` [SD-29-11], on RACK1A, the “tyrosine phosphorylation … of RACK1A proteins” value is listed as “prevent tyrosine phosphorylation (Y248) based homodimerization of RACK1A proteins”. Besides, the “UV-B induced cell death … (AA)” value in assay [1] is “effective to protect yeast cells from UV-B induced cell death”.
